Measurements: patent US7148229B2, “Sulfonamide substituted xanthine derivatives” (Hoffman-La Roche Inc., priority 2003, dated 2006)

These compounds were tested against T1, recombinant human cytosolic PEPCK (GST-PEPCK) (Homo sapiens, UniProt P35558) (assay: PEPCK enzyme assay (coupled to pyruvate kinase / lactate dehydrogenase, absorbance at 340 nm)). Conditions: in vitro PEPCK enzymatic assay; GTP at 3 fold and OAA at 10 fold Km; final DMSO 10%; room temperature, twenty minutes.
T1 construct: made in house; host or cells: E. coli
T1 sequence (P35558 1-622): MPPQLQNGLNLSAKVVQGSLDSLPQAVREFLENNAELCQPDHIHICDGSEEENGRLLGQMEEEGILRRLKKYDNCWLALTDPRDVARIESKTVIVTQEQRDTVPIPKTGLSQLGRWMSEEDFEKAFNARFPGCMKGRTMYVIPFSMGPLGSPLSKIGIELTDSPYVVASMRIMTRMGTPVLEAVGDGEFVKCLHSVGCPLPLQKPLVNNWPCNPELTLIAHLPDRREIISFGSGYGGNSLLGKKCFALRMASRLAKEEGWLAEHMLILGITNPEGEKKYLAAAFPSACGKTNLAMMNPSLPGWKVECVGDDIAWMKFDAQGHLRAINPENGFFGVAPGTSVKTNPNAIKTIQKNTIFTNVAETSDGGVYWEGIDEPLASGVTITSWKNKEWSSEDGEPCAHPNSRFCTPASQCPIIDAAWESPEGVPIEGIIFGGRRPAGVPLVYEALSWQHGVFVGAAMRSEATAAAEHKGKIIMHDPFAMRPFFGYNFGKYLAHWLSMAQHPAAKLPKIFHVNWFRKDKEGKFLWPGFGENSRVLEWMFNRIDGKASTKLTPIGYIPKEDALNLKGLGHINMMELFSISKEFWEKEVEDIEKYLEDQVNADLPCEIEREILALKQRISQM
Type: biochemical
Experimental: E. coli cells expressing GST-PEPCK were suspended in 5 volumes of lysis buffer (50 mM Tris-hydroxymethyl aminomethyl (TRIS), 150 mM sodium chloride (NaCl), 10 mM ethylene-diametetraacetic acid (EDTA), 5 mM dithiothreitol(DTT), 1% Nonidet P-40, pH 7.4) in the presence of protease inhibitors, incubated with lysozyme at 200 micrograms/ml for 30 min. at room temperature, and sonicated 4×30 seconds at 4 degrees C. After centrifugation at 12,000×g for 20 min. to remove insoluble material, the supernatant was loaded onto glutathione Sepharose (Pharmacia), washed with lysis buffer followed by washing with lysis buffer in the absence of NP-40. GST-PEPCK was eluted with the same buffer containing 20 mM glutathione. The eluted protein was concentrated and dialyzed against 25 mM Hepes(N-[2-hydroxyethyl]piperazine-N′[2-ethanesulfonic acid), 150 mM NaCl, 2.5 mM EDTA, 5 mM DTT, 30% glycerol, pH 7.4, and stored at −20° C.
The inhibitory effect of the compounds of the present invention on PEPCK enzymatic activity was determined using recombinant human cytosolic PEPCK, expressed and purified from E.coli as a GST-fusion. Guanosine triphosphate (GTP) and manganese dependent PEPCK enzyme activity catalyzed the decarboxylation of oxalacetate leading to the formation of guanosine diphosphate (GDP) and phosphoenol pyruvate (PEP). This reaction is coupled to pyruvate kinase and lactate dehydrogenase catalyzed reactions and the overall reaction rate determined by measuring the change in absorbance at 340 nm (Chang, H. C. and Lane M. D., J. Biol. Chem. 241:2413–2420, 1966). The following modifications were made to the protocol: 2.5 μg of recombinant, human cytosolic glutathione-S-transferase (GST)-PEPCK was added to a reaction mixture at room temperature which contained 0.3 mM GTP, 0.3 mM oxaloacetate (OAA), 3 mM magnesium chloride (MgCl2), 0.075 mM manganese chloride (MnCl2), 30 mM potassium phosphates (KPO4), pH 7.6, 1 mM dithiothreitol (DTT), 0.2 mM adenosine diphosphate (ADP), 1 mM nicotinamide adenine dinucleotide, reduced form (NADH), 0.9 Units/ml each of pyruvate kinase and lactate dehydrogenase and 1 mg/ml bovine serum albumin (BSA). Test compounds were added such that final concentration of DMSO was 10%. Reactions were run for twenty minutes.
Km values for GTP and OAA were determined according to Michelis-Menton conditions as described in Comish-Bowden (Fundamentals of Enzyme Kinetics, 1995) in essentially the coupled assay conditions described above. […] Test compounds were added to reactions over a range of concentrations and IC50's were calculated from plots of inhibitor concentration versus enzyme rate. This method of determination of IC50 values is equally applicable to calculations based on PEPCK cellular assay.

| Structure (SMILES) | IC50 |
| --- | --- |
| CC(=O)Nc1nc(C)c(S(=O)(=O)Nc2ccc(Cc3nc4c([nH]3)c(=O)n(Cc3ccccc3F)c(=O)n4CC3CC3)cc2)s1 [Example 10, N-(5-{4-[3-Cyclopropylmethyl-1-(2-fluoro-benzyl)-2,6-dioxo-2,3,6,7-tetrahydro-1H-purin-8-ylmethyl]-phenylsulfamoyl}-4-methyl-thiazol-2-yl)-acetamide] | 220 nM |
| CCCCn1c(=O)n(Cc2ccccc2)c(=O)c2[nH]c(Cc3ccc(NS(=O)(=O)c4ccc(C)cc4)cc3)nc21 [Example 21, N-[4-(1-Benzyl-3-butyl-2,6-dioxo-2,3,6,7-tetrahydro-1H-purin-8-ylmethyl)-phenyl]-4-methyl-benzenesulfonamide] | 7650 nM |
| CN(C)S(=O)(=O)Nc1ccc(Cc2nc3c([nH]2)c(=O)n(Cc2ccccc2F)c(=O)n3CC2CC2)cc1 [Example 17, N-{4-[3-Cyclopropylmethyl-1-(2-fluoro-benzyl)-2,6-dioxo-2,3,6,7-tetrahydro-1H-purin-8-ylmethyl]-phenyl}-N,N-dimethylsulfamide] | 960 nM |
| COc1cccc(S(=O)(=O)Nc2ccc(Cc3nc4c([nH]3)c(=O)n(Cc3ccccc3F)c(=O)n4CC3CC3)cc2)c1 [Example 3, N-{4-[3-Cyclopropylmethyl-1-(2-fluoro-benzyl)-2,6-dioxo-2,3,6,7-tetrahydro-1H-purin-8-ylmethyl]-phenyl}-3-methoxy-benzenesulfonamide] | 1200 nM |
| Cc1nc(S(=O)(=O)Nc2ccc(Cc3nc4c([nH]3)c(=O)n(Cc3ccccc3F)c(=O)n4CC3CC3)cc2)cn1C [Example 13, 1,2-Dimethyl-1H-imidazole-4-sulfonic acid {4-[3-cyclopropylmethyl-1-(2-fluoro-benzyl)-2,6-dioxo-2,3,6,7-tetrahydro-1H-purin-8-ylmethyl]-phenyl}-amide] | 340 nM |
| CCCCn1c(=O)n(Cc2ccccc2F)c(=O)c2[nH]c(Cc3ccc(NS(=O)(=O)c4c(C)nn(C)c4Cl)cn3)nc21 [Example 25, 5-Chloro-1,3-dimethyl-1H-pyrazole-4-sulfonic acid {6-[3-butyl-1-(2-fluoro-benzyl)-2,6-dioxo-2,3,6,7-tetrahydro-1H-purin-8-ylmethyl]-pyridin-3-yl}-amide] | 880 nM |
| CC(=O)Nc1ccc(S(=O)(=O)Nc2ccc(Cc3nc4c([nH]3)c(=O)n(Cc3ccccc3F)c(=O)n4CC3CC3)cc2)cc1 [Example 20, N-(4-{4-[3-Cyclopropylmethyl-1-(2-fluoro-benzyl)-2,6-dioxo-2,3,6,7-tetrahydro-1H-purin-8-ylmethyl]-phenylsulfamoyl}-phenyl)-acetamide] | 6250 nM |
| O=c1c2[nH]c(Cc3ccc(NS(=O)(=O)c4cnc(Cl)c(Br)c4)cc3)nc2n(CC2CC2)c(=O)n1Cc1ccccc1F [Example 5, 5-Bromo-6-chloro-pyridine-3-sulfonic acid {4-[3-cyclopropylmethyl-1-(2-fluoro-benzyl)-2,6-dioxo-2,3,6,7-tetrahydro-1H-purin-8-ylmethyl]-phenyl}-amide] | 4580 nM |
